Here are results for 2 molecules from patent publication US11590163B2, “Iron-fortified food composition” (SOCIETE DES PRODUITS NESTLE S.A., priority 2017, dated 2023).

The nature of series [1]: Human stable-isotope iron bioavailability study (erythrocyte incorporation). The series is classed as in vivo. Particulars: healthy adult women. Here is the method: Clinical trials were performed on fortified chicken bouillon and fortified chicken bouillon with corn flour to simulate inhibitory conditions. The trial was performed by ETH Zurich (Switzerland). The study was a controlled, single blind, single centre, and randomized cross-over trial in 22 healthy adult women, with each woman serving as their own control. Each participant consumed 6 different types of investigational products: bouillon respectively bouillon with maize porridge fortified either with PA:^58Fe:HCP, ^54FeSO4, (Ref1-labelled) or ^57FePP (Ref2-labelled). The PA:^58Fe:HCP complex was prepared as Example 1 sample 9 apart from the use of ^58Fe. The order of test meal administration was randomly assigned. […]
Fractional iron absorption (FIA) was calculated based on the measured shift of iron isotope ratios in the blood 14 days after the test meal administrations, from the blood samples collected on days 1, 17 and 35. […] The amounts of ^54Fe, ^57Fe and ^58Fe in the blood were calculated on the principle of isotope dilution by considering that iron isotopic labels are not mono-isotopic. Circulating iron was calculated based on blood volume and hemoglobin concentration. Blood volume was indirectly measured based on height and weight and calculated using the formula proposed by Brown et al [E. Brown et al., The Journal of clinical investigation, 41:21, 82-90.(1962)]. […]

A short description of series [2]: Colour change in iron-fortified bouillon (CIELAB ΔEab*). Conditions: chicken bouillon containing curcumin, approx. 5.5 mg iron per 6.55 g powder, reconstituted in 250 mL boiling water, 60° C. min. 30 minutes; vs bouillon with no iron. The series is classed as physicochemical. Here is the method:
Commercial Maggi Chicken Bouillon (Nestle Nigeria) containing curcumin was iron fortified by the addition of iron (III) complexes from Example 1, as well as ferrous sulphate (Dr. P. Lohmann GmbH KG) Ref1, and […] (Dr. P. Lohmann GmbH KG) Ref2. The amounts were chosen to provide approximately 5.5 mg of iron per 6.55 g of bouillon powder. A further sample without iron fortification was also prepared in the same manner. All samples were reconstituted in 250 mL of boiling water and kept at 60° C. for a minimum of 30 minutes.
Colour measurements were performed in 2.6×1 cm quartz cuvettes using an XRite ColorEye 7000A colorimeter. The colorimeter was set up with a D65 light source, 10 degree observer angle, specular component included and Large area View (LAV). The colour difference between the beverage with no iron salt and the iron-fortified beverages was measured for each material and expressed as ΔEab* using the CIELAB colour scale (Table 2).

`O=S(=O)([O-])[O-].[54Fe+2]` [^54FeSO4]: the fractional iron absorption in series [1] (in bouillon plus maize meal rich in phytate) is listed as 3.6%; in series [1] (in bouillon), 24.6%.

As to `O=S(=O)([O-])[O-].[Fe+2]` [Ref1, ferrous sulphate], in series [2], the “Δ E” value came to 15.2.
